This is an account of results in BindingDB's records for doi:10.1016/S0960-894X(00)80241-3 (1991).

Usually IC50 stands for the concentration that inhibits the measured activity by half.

The nature of this assay: Inhibition of [14C]arachidonic acid conversion to 5-HETE by broken cell 5-lipoxygenase in vitro (guinea pig PMN).

`COc1ccc2c(c1C(=O)NO)Nc1ccccc1O2` [2-Methoxy-10H-phenoxazine-1-carboxylic acid hydroxyamide] came in with an IC50 of 0.42 µM.
With `COC(=O)c1cccc2c1Nc1ccccc1O2` [10H-Phenoxazine-1-carboxylic acid methyl ester] the figure was 0.77 µM.
With `O=C(O)c1cccc2c1Nc1ccccc1O2` [10H-Phenoxazine-1-carboxylic acid] the figure was 0.61 µM; with `CN(O)C(=O)c1ccc2c(c1)Nc1ccccc1O2` [10H-Phenoxazine-2-carboxylic acid hydroxy-methyl-amide], 0.087 µM.
In the case of `COC(=O)c1ccc2c(c1)Nc1ccccc1O2` [10H-Phenoxazine-2-carboxylic acid methyl ester] it was 0.065 µM; in that of `O=C(O)c1ccc2c(c1)Nc1ccccc1O2` [10H-Phenoxazine-2-carboxylic acid], 4.6 µM.
`c1ccc2c(c1)Nc1ccccc1O2` [10H-Phenoxazine] had an IC50 of 0.02 µM.
As for `CCOC(=O)/C=C/c1ccc2c(c1)Nc1ccccc1O2` [(E)-3-(10H-Phenoxazin-2-yl)-acrylic acid ethyl ester], half-maximal inhibition (IC50) required 0.035 µM.
`O=C(O)/C=C/c1ccc2c(c1)Nc1ccccc1O2` [(E)-3-(10H-Phenoxazin-2-yl)-acrylic acid] had an IC50 of 1.2 µM.
With `CN(O)C(=O)/C=C/c1ccc2c(c1)Nc1ccccc1O2` [(E)-N-Hydroxy-N-methyl-3-(10H-phenoxazin-2-yl)-acrylamide] the figure was 0.085 µM.
